Patent US11291659B2, “P38 kinase inhibitors reduce DUX4 and downstream gene expression for the treatment of FSHD” (Fulcrum Therapeutics, Inc., priority 2017, dated 2022)
Blank lines part the entries; values can stand above or below the compound they belong to.

Columns and labels:
myogenin (MYOG) mRNA = test: Myogenin (MYOG) mRNA expression by qPCR in FSHD myotubes (control gene); format: cell-based, Human
Experimental: (§1) For ASO or compound treatments cells were plate into 100 μL of Promocell growth medium containing ASO or compounds at the described concentrations.
(§2) On day 0, change to differentiation media. Remove plates from the incubator and aspirate the growth medium, Wash once with PBS, 100 μL for 96-wells and 1 mL for a 6-well plate, Add 100 μL or 2 mL of differentiation medium per well, 96- or 6-well respectively. Add antisense oligonucleotides or drug at the desire concentration and put back in the incubator. Fusion should start within day 1-2. Incubate for 3-4 days.
(§3) Cells were removed from the incubator and media aspirated. Quickly lysed following one of the following protocols: For lysis in 96-well plates direct lysis and one-step RT-Preamp qPCR protocol described below. For each 96-well prepare a mix containing: 19.5 μL Roche Realtime Ready lysis buffer, 0.25 μL RNAse inhibitor, 0.25 μL DNAseI (from Thermo not the included one in the kit). 20 μL of the mix was added to each well, mix 5 times and incubated 5 minutes at RT or alternatively shaken vigorously for 15 minutes. Lysis was observed under the microscope. Samples were frozen −80° C. at least for 15 minutes,
For qPCR, dilute 1:10 and use 2 μL for a 10 μL 1-step RT-qPCR reaction. For detection of GAPDH, RPLP0, TBP, MYOG, FRG1, MYH3, ACTN2, etc.). Per 10 μL reaction: RNA (1:10 dilution lysate) 2 μL, Fast Advanced Taqman Master Mix (2×) 5 μL, RT enzyme mix (40×) 0.25 μL, Taqman probe set (20×) 0.5 μL, H2O 2.25 μL. The following reaction protocol was run on the QuantStudio 7: 48° C. for 15 min, 50° C. for 2 min, 95° C. for 30 sec, 40×, 95° C. for 5 sec, 60° C. for 30 sec, then plates were read as specified by the manufacturer (Thermo). For 1-step RT-Preamplification used for detection of DUX4 downstream genes, i.e. MBD3L2, ZSCAN4, LEUTX, TRIM43, KHDC1L. POL2RA-VIC was used as Endogenous control). Per 10 μL reaction: RNA (1:10 dilution lysate) 2.25 μL, Taqman Pre-Amp Master Mix (2×) 5 μL, RT enzyme mix (40×) 0.25 μL, Taqman probe set (0.2×)*2.5 μL, * Pooling the TaqMan Assays: equal volumes of each 20× TaqMan® Gene Expression Assay, up to 100 assays were combined. For example, to pool 50 TaqMan assays, 10 μL of each assay were combined in a microcentrifuge tube. The pooled TaqMan assays were diluted using 1×TE buffer so that each assay is at a final concentration of 0.2×. […] The following program was run on the QuantStudio7: 50° C. for 2 min, 95° C. for 30 sec, 40×, 95° C. for 5 sec, 60° C. for 30 sec, plates were read as per the manufacturers specifications (Thermo).
(§4) After treatment, the control and treated cells were processed for realtime PCR quantification of MBD3L2 mRNA (DUX4 downstream gene) and myogenin (MYOG) mRNA (control) expression.

[1] = tested on: MBD3L2 mRNA (DUX4 downstream gene); test: MBD3L2 mRNA expression by qPCR in FSHD myotubes; format: cell-based, Human; conditions: for IC50: Homo sapiens, Myotube, read-out: IC50, reduction of MBD3L2 mRNA expression, FSHD myotubes, realtime PCR
Experimental: Cell Plating: Performed three days prior to treatment, 10000 cells were plated per well on gelatinized 96-well plates, or 100000 cells on gelatinized 6-well plates.
as §1, §2, §3
For qPCR, dilute 1:10 and use 2 μL for a 10 μL 1-step RT-qPCR reaction. For detection of GAPDH, RPLP0, TBP, MYOG, FRG1, MYH3, ACTN2, etc.). Per 10 μL reaction: RNA (1:10 dilution lysate) 2 μL, Fast Advanced Taqman Master Mix (2×) 5 μL, RT enzyme mix (40×) 0.25 μL, Taqman probe set (20×) 0.5 μL, H2O 2.25 μL. The following reaction protocol was run on the QuantStudio 7: 48° C. for 15 min, 50° C. for 2 min, 95° C. for 30 sec, 40×, 95° C. for 5 sec, 60° C. for 30 sec, then plates were read as specified by the manufacturer (Thermo). For 1-step RT-Preamplification used for detection of DUX4 downstream genes, i.e. MBD3L2, ZSCAN4, LEUTX, TRIM43, KHDC1L. POL2RA-VIC was used as Endogenous control). Per 10 μL reaction: RNA (1:10 dilution lysate) 2.25 μL, Taqman Pre-Amp Master Mix (2×) 5 μL, RT enzyme mix (40×) 0.25 μL, Taqman probe set (0.2×)*2.5 μL, * Pooling the TaqMan Assays: equal volumes of each 20× TaqMan® Gene Expression Assay, up to 100 assays were combined. For example, to pool 50 TaqMan assays, 10 μL of each assay were combined in a microcentrifuge tube. The pooled TaqMan assays were diluted using 1×TE buffer so that each assay is at a final concentration of 0.2×. For the above example, add 500 μL of 1×TE buffer to the pooled TaqMan assays for a total final volume of 1 mL. The QuantStudio7 protocol was used 48° C. 15 min, 95° C. 10 min, 10 cycles: 95° C. 15 sec, 60° C. 4 min, 4° C. infinite. Samples were then diluted to 50 μL and continue with the qPCR step. Per 10 μL reaction: Preamp dilution 2 μL, Fast Advanced Taqman Master Mix (2×) 5 μL, Taqman probe set (20×) 0.5 μL, H2O 2.5 μL. When multiplexing the volume was adjusted to 10 μL total). The following program was run on the QuantStudio7: 50° C. for 2 min, 95° C. for 30 sec, 40×, 95° C. for 5 sec, 60° C. for 30 sec, plates were read as per the manufacturers specifications (Thermo).
as §4

[2] = tested on: DUX4 dependent target genes; test: Prediction for FSHD patient muscle from rat muscle concentrations and in vitro myotube data; design: species or system Human; conditions: at Cmax, FSHD patient muscle biopsies
Experimental: P38 system target engagement persisted for at least 12 hours following the single dose of FTX-1821 (FIG. 15). P38 system target engagement in trapezius muscle was maximal when plasma and muscle concentrations of FTX-1821 were greater than 20 ng/mL or ng/g and declined at timepoints when exposures decreased. The muscle concentrations of FTX-1821 achieved in the rat study are predicted to result in >70% reduction at Cmax in DUX4 dependent target genes in FSHD patient muscle biopsies based upon in vitro data in FSHD myotubes (above).

[3] = tested on: phospho MK2 to total MK2 ratio; test: p38 system target engagement in rat trapezius muscle; format: in vivo, Sprague-Dawley rats
Experimental: Pharmacodynamic analysis of p38 system target engagement in muscle tissue was performed by measuring the change in phosphor MAP kinase-activated protein kinase 2 (MK2) to total MK2 ratio before and after drug treatment.

DUX4 target genes = test: RNA-seq profiling of FSHD myotubes; format: cell-based, Human
From the text: The 40 bp single-end reads from Illumina had good quality by checking with FastQC (http://www.bioinformatics.babraham.ac.uk/projects/fastqc/). Reads were mapped to hg19 using TopHat v2.1.1. The gene model for TopHat was created by merging known Gene in gtf format with kgXref table. Both known Gene and kgXref were downloaded from UCSC table browser in hg19 assembly. The read counts were obtained using feature Counts function from Subread package with strandness option as −r 2. Reads were normalized with DESeq2. […] Consequently, Combat was used for reducing this batch effect. Calculated standard RPKM expression values. Total gene signature is very small and defined at standard statistical cutoffs: 86/19,799 mRNA genes. DUX4-regulated gene signature is majority of total signature: 77/86 mRNA genes=90%. Non-DUX4 regulated genes is minority of total signature with moderate fold changes: 9/86 mRNA genes=10%; 2-2.7×log FC.
In addition, gene expression was also determined in wild type myotubes treated with DMSO. Three replicates for each condition were analyzed by RNA-seq and genes were clustered by the direction and intensity of change.

FSHD myotubes = test: Myotube formation / fusion, MHC and DAPI staining; format: cell-based, Human; conditions: immortalized FSHD myotubes; 1, 0.33, 0.11, 0.037 μM; 4 days
Experimental: as §2
Briefly, cells were fixed in 4% paraformaldehyde and […] for 10 min at room temperature. Cells were permeabilized with PBST (1×PBS solution with 0.1% Triton X-100) before blocking with 10% Normal Donkey Serum or 3% BSA (NDS) in PBST. […] DUX4 was detected by immunocytochemistry using the E5-5 antibody in differentiated FSHD myotubes. Activated Caspase-3 was detected cell signaling antibody that we're using for ICC, Asp175 (https://www.cellsignal.com/products/primary-antibodies/cleaved-caspase-3-asp175-antibody/9661).
Immortalized FHSD myotubes were differentiated and treated with DMSO vehicle control or FTX-1821 at concentrations of 1 μM, 0.33 μM, 0.11 μM, or 0.037 μM. […] The nuclei in myotubes were quantified according to MHC staining (FIG. 8B).

[4] = tested on: DUX4 and downstream genes ZSCAN4, TRIM43, MBD3L2, LEUTX, KHDC1L; test: DUX4-regulated downstream genes by real time PCR after DUX4 ASO; format: cell-based, Human; conditions: FSHD myotubes
Experimental: as §1
Wild type myotubes were treated with DMSO control vehicle, and mature patient-derived FSHD myotubes that express DUX4 protein were treated with DMSO vehicle control or 1 μM of a DUX4 sequence-directed antisense oligonucleotide (ASO; FTX-2) purchased from Exiqon. After treatment, the myotubes were lysed in 19.5 μL of Roche Real Time Ready Lysis Buffer, 0.25 μL of DNAse1 (Ambion, AM2222), 0.25 μL of Protector RNase Inhibitor (Roche, 3335402001), and the RNA was collected in an RNeasy Micro Kit Master Mix. Expression levels of DUX4-regulated downstream genes (ZSCAN4, TRIM43, MBD3L2, LEUTX, and KHDC1L) was determined by real time PCR (ThermoFisher Scientific, 4484262), ZSCAN4 Taqman Assay (ThermoFisher Scientific, Hs00537549_m1, FAM-MGB), MYOG Taqman Assay (ThermoFisher Scientific, Hs01072232_m1, JUN-QSY), RPLP0 Taqman Assay (ThermoFisher Scientific, Hs99999902_m1), and/or LEUTX Taqman Assay (ThermoFisher Scientific, Hs00418470_m1). Ct values were extracted from QuantStudio Realtime PCR software, and Genedata was used to calculate relative levels of expression using POLR2A as a housekeeping gene.

[5] = rat trapezius muscle, single oral dose 0.3 mg/kg

IC50 [1]: < 10 nM
Compound: NC(=O)c1ccc(N(C(N)=O)c2c(F)cccc2F)nc1-c1ccc(F)cc1F [VX-702, 2-(2,4-difluorophenyl)-6-(1-(2,6-difluorophenyl)ureido)nicotinamide]
MYOG mRNA expression (myogenin (MYOG) mRNA): no impact

Compound: Cc1c(F)cc(C(=O)NC2CC2)cc1-c1ccc(C(=O)NCC(C)(C)C)cn1 [FTX-1821]
predicted reduction in DUX4 dependent target genes [2]: > 70% | plasma concentration at which inhibition of the p38 system in muscle was maximal ([3]; rat): greater than 20 ng/mL | plasma and muscle concentrations at which target engagement was maximal ([3]; rat trapezius muscle): greater than 20 ng/mL or ng/g | phospho MK2 to total MK2 ratio [3, 5]: significantly decreased | time to decrease of phospho MK2 to total MK2 ratio [3, 5]: ≤ 1 h | persistence of p38 system target engagement ([3]; rat, single oral dose 0.3 mg/kg): at least 12 hours | MBD3L2 mRNA expression ([1]; FSHD1 and FSHD2 primary patient myoblast lines, 1 μM): reduction of MBD3L2 | MBD3L2 expression levels ([1]; myotubes of four FSHD patient lines FTCE-016, -020, -197, -196, 1 μM): reduced in all of the FSHD lines | Non-DUX4-regulated genes in total signature (DUX4 target genes; 1 μM vs DMSO, RNA-seq): 9/86 | fold changes of non-DUX4-regulated genes (DUX4 target genes; 1 μM vs DMSO, RNA-seq): 2-2.7 × log FC | expression of differentially expressed (DUX4 pathway) genes (DUX4 target genes; 1 μM, compared with wild type cells): normalized | myotube formation or fusion (FSHD myotubes): no changes

Compound: COc1nccc(-c2c(-c3ccc(F)cc3)ncn2C2CCC(O)CC2)n1 (stereo not shown) [SB239063]
MYOG mRNA expression (myogenin (MYOG) mRNA): no impact

Compound: FTX-2: DUX4 sequence-directed antisense oligonucleotide purchased from Exiqon, CAGCGTCGGAAGGTGG (SEQ ID NO: 1) (listed as DNA, chemistry not given here)
expression of DUX4 and target genes ZSCAN4, TRIM43, MBD3L2, LEUTX, KHDC1L ([4]; 1 μM vs DMSO): reduced amounts | DUX4 and downstream gene MBD3L2 expression ([4]; different dilutions): dose dependent reduction

IC50 [1]: < 10 nM
Compound: CCc1nc(-c2cccc(C)c2)c(-c2ccnc(NC(=O)c3ccccc3)c2)s1 [TAK-715, N-(4-(2-ethyl-4-(3-methylphenyl)-1,3-thiazol-5-yl]-2-pyridyl]benzamide]
MYOG mRNA expression (myogenin (MYOG) mRNA): no impact
